In experiment [1] the test system is in vitro translated STAT1. Description: In vitro translation and anti-FLAG immunoprecipitation. The experiment is classed as binding. The settings on record: rabbit reticulocyte lysate proteins, ± JAK1 kinase; listed as DUX4-CTD. How it is done: In vitro translated proteins were prepared using the TnT Quick Coupled Transcription Translation System (Promega, L2080) for the SP6 promoter on the pCS2-3×MYC-STAT1, pCS2-3×MYC-STAT1-S727E, pCS2-3×FLAG-DUX4aa154-424, and pCS2-3×FLAG-DUXB plasmids. To phosphorylate the 3×MYC-STAT1 and 3×MYC-STAT1-S727E proteins at Y701, 20 μL of the TnT reaction was mixed with 8 μL of 5× Kinase Buffer A (ThermoFisher, Cat #PV3189), 4 uL 10 mM ATP (ThermoFisher, Cat #PV3227), 0.4 ug recombinant JAK1 kinase (ThermoFisher, Cat #PV4774), and then nuclease-free ddH2O to a final volume of 40 μL and incubated for 1 hour at 30° C. The same procedure was used for treatment of 3×FLAG-DUX4-CTD with JAK1 kinase. For IPs, the in vitro translated proteins were mixed and incubated for 15 minutes in a 37° C. water bath. 0.3 mL of ice-cold in vitro IP buffer [20 mM Tris-HCl pH 7.5, 137 mM NaCl, 1 mM EDTA, 0.1% Tween20, 5% glycerol, adjusted to pH 7.4] was added to each sample and then 50 μL of Dynabeads Protein G bound to mouse IgG1 anti-FLAG [M2] (F3165) and incubated for 3 hours at 4° C. with gentle rotation. After immunoprecipitation of FLAG-tagged constructs, each sample was washed 3 times with 1 mL of ice-cold in vitro IP buffer in a 4° C. room. […]

Experiment [2] concerns polysome association of mRNAs. The experiment is described as follows: Polysome profiling with RNA-seq. Type of experiment: cell-based, human. The following applies: DUX4 pulse+IFNG versus IFNG. The method, then: Polysome profiling was performed using three 70% confluent 15 cm plates of MB135iDUX4 myoblasts per treatment condition (n=3). MB135iDUX4 myoblasts were pulsed with or without doxycycline for 4 hours, incubated for 48 hours, supplemented with 50 ng/mL IFNG for 16 hours, and harvested at a terminal time point of 68 hours. To harvest, culture medium was supplemented with 100 μg/mL cycloheximide (CHX; Sigma) and cells were incubated at 37° C. for 10 minutes. Media was aspirated and each 15 cm plate of adherent cells was rinsed with 25 mL ice-cold PBS supplemented with 100 μg/mL cycloheximide, lifted with 0.25% Trypsin-EDTA supplemented with CHX, and resuspended in growth media supplemented with CHX. Cells were pelleted at 300 RCF and washed twice with ice-cold PBS supplemented with CHX. Cell pellets were flash frozen in liquid nitrogen and stored at −80° C. Cells were lysed with Polysome Lysis Buffer (10 mM Tris pH 8, 140 mM NaCl, 7.5 mM MgCl2, 0.25% NP-40, 0.1% Triton X-100, 150 μg/mL CHX, 20 mM DTT, 640U/mL SUPERase-In RNase Inhibitor) and clarified before quantification with the Bio-Rad Protein Assay. 1.5 mg of clarified lysate was loaded onto a 10-50% sucrose gradient prepared in DEPC-treated water with 25 mM Tris pH 7.4, 25 mM NaCl, 5 mM MgCl2, 100 μg/mL heparin, and 2 mM DTT. Gradients were fractionated using a Biocomp Piston Gradient Fractionator. Samples were resuspended in Trizol and Drosophila S2 cells were added as an internal spike-in control. RNA was extracted using the Direct-zol RNA Miniprep Kit (Zymo Research). Relative mRNA abundance for each sample was normalized to Drosophila spike-in to account for differences in RNA extraction efficiency (Taruttis et al., 2017).
Total RNA was isolated using the NucleoSpin RNA kit (Machery-Nagel) or Direct-zol RNA Mini-Prep Kit (Zymo Research) according to manufacturer's instructions. RNA-seq libraries were prepared using the Illumina TruSeq RNA Sample Prep v2 Kit and sequenced using 50 bp paired-end sequencing on the Illumina NextSeq platform by the Fred Hutchinson Cancer Center Genomics Core.

“Also recorded” adds a separate entry of the source.

Regarding “longCTD: 3×FLAG tag and nls in frame with carboxyterminal 271 amino acids of DUX4 (aa154-424), SEQ ID NOS: 8-9”, in experiment [1], the “interaction with in vitro translated STAT1” value is recorded as “did not interact with in vitro translated STAT1; also recorded: does not co-immunoprecipitate with in vitro translated/phosphorylated STAT1”.
As for “DUX4: human DUX4 protein SEQ ID NO:3 expressed from doxycycline inducible codon altered transgene SEQ ID NO:2”, the “mRNAs reduced in the high polysome fraction” value in experiment [2] (log 2FC<−1, p-adj<0.01) came out at 7765 genes. Further, in experiment [2] (log 2FC>1, p-adj<0.01), the “polysome-bound mRNAs significantly upregulated” value was 256. Also, in experiment [2] (|log 2FC>1|, p-adj<0.01), the “genes with decreased polysome association (high/sub ratio)” value stood at 5800 genes and the “genes with increased polysome association (high/sub ratio)” value amounted to 323 genes. In experiment [2] (high-to-sub polysome ratio), the “polysome association of specific mRNAs” value was “TOP mRNAs remain associated with polysomes; also recorded: HLA-A, HLA-B, and HLA-C mRNAs showed reduced polysome association; also recorded: PSMB8, PSMB9, and PSMB10 mRNAs remained associated with polysomes”.

The values above are taken from patent US20250339531A1, “DUX4 POLYPEPTIDES AND NUCLEIC ACIDS FOR TREATING INFLAMMATORY AND AUTOIMMUNE CONDITIONS” (Fred Hutchinson Cancer Center, priority 2021, published 2025).
